Reference: the NIST ThermoML archive (doi:10.1016/j.jct.2009.01.008)

Key:
[1] = 101 kPa, Liquid, Linear variable-path acoustic interferometer
[2] = refractive index (Na D-line) (dimensionless); settings: 298.15 K; 101.33 kPa; Liquid
[3] = xn = mol fraction of the nth substance listed; settings: 101 kPa, Liquid, Linear variable-path acoustic interferometer

CC(C)CC(C)(C)C [2,2,4-trimethylpentane]
[1]
Settings	speed of sound [m/s]
298.15 K	1082.8
308.15 K	1041.1
318.15 K	1000
328.15 K	958.4

Settings	refractive index
[2]	1.38905

Cc1ccccc1 [toluene] + COC(C)(C)C
[3], x2 = 0
Settings	speed of sound [m/s]
298.15 K	1305.4
308.15 K	1262.6
318.15 K	1220.3
328.15 K	1178.6

CC(C)CC(C)(C)C [2,2,4-trimethylpentane] + COC(C)(C)C
[3], x2 = 0
Settings	speed of sound [m/s]
298.15 K	1082.8
308.15 K	1041.1
318.15 K	1000
328.15 K	958.4

Cc1ccccc1 [toluene] + CC(C)CC(C)(C)C
[3], x1 = 1
Settings	speed of sound [m/s]
298.15 K	1305.4
308.15 K	1262.6
318.15 K	1220.3
328.15 K	1178.6

CC(C)CC(C)(C)C [2,2,4-trimethylpentane] + Cc1ccccc1
speed of sound [m/s], [3]
Settings	298.15 K	308.15 K	318.15 K	328.15 K
x2 = 0	1082.8	1041.1	1000	958.4
x2 = 0.07776	1092.7	1051.1	1009.9	969.3
x2 = 0.1405	1101.3	1059.7	1018.5	977.9
x2 = 0.2059	1110.8	1069.2	1028.1	987.5
x2 = 0.2671	1120.3	1078.7	1037.6	997
x2 = 0.3385	1132.3	1090.7	1049.5	1008.8
x2 = 0.3976	1143	1101.3	1060.1	1019.4
x2 = 0.4724	–	1115.6	1074.3	–
x2 = 0.5328	1170	–	1086.9	1046.1
x2 = 0.5966	1184.2	1142.3	1100.9	1060
x2 = 0.6699	1201.9	1159.9	1118.4	1077.5
x2 = 0.7302	1217.5	1175.4	–	1092.8
x2 = 0.7895	–	–	1150.3	–
x2 = 0.8001	1237.5	1195.3	1153.6	1112.4
x2 = 0.8681	1258.4	1216.1	1174.2	1132.8
x2 = 0.8691	1259	–	–	–
x2 = 0.9539	1288.1	1245.4	1203.3	–

COC(C)(C)C [2-methoxy-2-methylpropane]
[1]
Settings	speed of sound [m/s]
298.15 K	1036.4
308.15 K	990.8
318.15 K	945.3

Settings	refractive index
[2]	1.36648

COC(C)(C)C [2-methoxy-2-methylpropane] + Cc1ccccc1
speed of sound [m/s], [3]
Settings	298.15 K	308.15 K	318.15 K	328.15 K
x1 = 0.1021	1277.4	1234.5	1192	1149.9
x1 = 0.2035	1250	1206.7	1163.9	1121.6
x1 = 0.2591	1234.8	1191.3	1148.5	1106.1
x1 = 0.3321	1215.2	1171.6	1128.4	1086.2
x1 = 0.4008	1196.7	1152.9	1109.5	1066.9
x1 = 0.4665	–	–	–	1049.4
x1 = 0.5323	–	–	–	1030.2
x1 = 0.5894	1145.8	1101.5	1057.6	–
x1 = 0.664	1125.8	1081.2	1037	–
x1 = 0.7257	–	–	1020.4	976.5
x1 = 0.7956	–	1045.7	1001	958.4
x1 = 0.8643	1072.3	1027.1	982.4	–
x1 = 0.9025	1062.2	1016.8	971.6	–
x1 = 1	1036.4	990.8	945.3	–

COC(C)(C)C [2-methoxy-2-methylpropane] + CC(C)CC(C)(C)C
speed of sound [m/s], [3]
Settings	298.15 K	308.15 K	318.15 K	328.15 K
x1 = 0.05551	1079.2	1037.5	–	–
x1 = 0.08857	1077.1	–	993.7	952.7
x1 = 0.1305	1074.8	1032.8	991.2	–
x1 = 0.1971	1071	1028.7	986.9	945.5
x1 = 0.2599	1067.4	1024.9	983	941.5
x1 = 0.3284	1063.8	1021	978.9	–
x1 = 0.3315	–	–	–	936.4
x1 = 0.4078	1059.5	1016.4	973.8	–
x1 = 0.4756	1056.1	1012.7	–	–
x1 = 0.5629	1052	1008.2	964.9	922.2
x1 = 0.6184	1049.5	–	–	–
x1 = 0.6831	1046.7	1002.5	958.7	915.2
x1 = 0.7456	1044.1	995.5	955.6	–
x1 = 0.7644	1043.4	–	–	–
x1 = 0.8143	1041.7	–	–	–
x1 = 0.8155	1041.5	996.6	952.4	–
x1 = 0.8675	1039.8	994.7	950	–
x1 = 0.9376	1037.8	992.5	947.4	–
x1 = 1	1036.4	990.8	945.3	–

Cc1ccccc1 [toluene]
[1]
Settings	speed of sound [m/s]
298.15 K	1305.4
308.15 K	1262.6
318.15 K	1220.3
328.15 K	1178.6

Settings	refractive index
[2]	1.4941
